This passage reports GI50 and TGI results from PubChem BioAssay (NCI).

Molecules are shown by their SMILES. Where “and” joins values, the source holds several entries; their conditions need not be identical. Equal values may be shown once.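 Each compound was tested at five concentrations against cells in 96-well plates for 48 hours. Here, GI50 denotes the concentration required for 50% inhibition of growth. At the TGI there is no net growth.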

Among the test systems are PC-3 prostate; HS 578T breast; SK-MEL-28 melanoma; U251 CNS; SNB-75 CNS; UACC-62 melanoma; SK-MEL-2 melanoma; CCRF-CEM leukemia; NCI/ADR-RES ovarian; MALME-3M melanoma.
What all share (experiment): inhibition of tumour cell growth, NCI panel, 48 h

On to `CCN1C(=S)N(CC)C2C1NC(=S)N2/N=C/C=C/c1ccccc1OC` (centres undefined), for which the GI50 in the experiment on PC-3 prostate is 0.29 µM; in the experiment with HS 578T breast, 0.322 µM; in the experiment with SK-MEL-28 melanoma it was 1.11 µM; in the experiment on U251 CNS it was 0.354 µM; in the experiment with SNB-75 CNS, 0.0935 µM; with UACC-62 melanoma, 0.33 µM. In addition, the GI50 is 0.615 µM with SK-MEL-2 melanoma, 0.346 µM in the experiment with CCRF-CEM leukemia, 0.237 µM with NCI/ADR-RES ovarian and 0.736 µM in the experiment with MALME-3M melanoma. For the same compound, the TGI in the experiment with PC-3 prostate was greater than 100 µM; in the experiment on HS 578T breast it was greater than 100 µM; with SK-MEL-28 melanoma it was greater than 100 µM; in the experiment on U251 CNS, 24.4 µM; in the experiment on SNB-75 CNS, 0.606 µM; with UACC-62 melanoma, 25.6 µM. For the same compound, the TGI with SK-MEL-2 melanoma is 56.7 µM; with CCRF-CEM leukemia, greater than 100 µM; with MALME-3M melanoma it was 63 µM.

`CN(C)CCCC1(c2ccc(F)cc2)OCc2cc(-c3cccc4[nH]ccc34)ccc21` (centres undefined): the GI50 was 1.58 µM with PC-3 prostate; 2.12 µM with HS 578T breast; 1.83 µM in the experiment on SK-MEL-28 melanoma; 1.52 µM in the experiment with U251 CNS; 1.27 µM in the experiment with SNB-75 CNS; 1.76 µM in the experiment on UACC-62 melanoma. For the same compound, the GI50 was 1.79 µM with SK-MEL-2 melanoma, 1.65 µM in the experiment on CCRF-CEM leukemia, 1.72 µM with NCI/ADR-RES ovarian and 1.56 µM in the experiment on MALME-3M melanoma. Besides, the TGI worked out at 3.31 µM with PC-3 prostate; 5.03 µM in the experiment with HS 578T breast; 3.27 µM in the experiment with SK-MEL-28 melanoma; 2.89 µM in the experiment on U251 CNS; 3.37 µM in the experiment with SNB-75 CNS; 3.23 µM with UACC-62 melanoma. For the same compound, the TGI came to 3.59 µM in the experiment on SK-MEL-2 melanoma, 3.95 µM in the experiment on CCRF-CEM leukemia, 3.38 µM in the experiment on NCI/ADR-RES ovarian and 3.01 µM in the experiment with MALME-3M melanoma.

On to `CNC(=O)c1ncccc1Nc1nc(Nc2cc3c(cc2OC)CCCN3C(=O)CN(C)C)nc2[nH]ccc12`, for which the GI50 with PC-3 prostate is 1.5 µM; in the experiment on HS 578T breast, 1.21 µM; with SK-MEL-28 melanoma, 3.18 µM; in the experiment on U251 CNS, 2.02 µM; in the experiment with SNB-75 CNS it was 3.03 µM; in the experiment on UACC-62 melanoma, 3.07 µM. For the same compound, the GI50 was 0.877 µM in the experiment on SK-MEL-2 melanoma, 0.568 µM in the experiment on CCRF-CEM leukemia, 0.724 µM in the experiment with NCI/ADR-RES ovarian and 3.65 µM with MALME-3M melanoma. In addition, the TGI in the experiment on PC-3 prostate came to 8.03 µM; in the experiment on HS 578T breast, 5.69 µM; in the experiment with SK-MEL-28 melanoma, 6.77 µM; in the experiment on U251 CNS it was 5.38 µM; with SNB-75 CNS it was 6.43 µM; with UACC-62 melanoma it was 6.45 µM. Moreover, the TGI came out at 3.89 µM in the experiment on SK-MEL-2 melanoma, 2.96 µM with CCRF-CEM leukemia, 2.74 µM with NCI/ADR-RES ovarian and 7.84 µM with MALME-3M melanoma.

`N#CC1(c2ccc(NC(=O)c3cccnc3NCc3ccncc3)cc2)CCCC1`: the GI50 with PC-3 prostate is 15.5 µM; in the experiment on HS 578T breast, 9.86 µM; in the experiment with SK-MEL-28 melanoma it was 17.3 µM; in the experiment with U251 CNS, 12 µM; with SNB-75 CNS, 8.08 µM; with UACC-62 melanoma, 8.02 µM. The GI50 was 11.9 µM with SK-MEL-2 melanoma, 12.9 µM with CCRF-CEM leukemia, 12.9 µM with NCI/ADR-RES ovarian and 12.1 µM in the experiment with MALME-3M melanoma. The TGI in the experiment with PC-3 prostate was greater than 64.3 µM; with HS 578T breast it was 50.2 µM; in the experiment with SK-MEL-28 melanoma, greater than 89.8 µM; with U251 CNS it was 25.8 µM; in the experiment on SNB-75 CNS, 56.7 µM; in the experiment with UACC-62 melanoma, 23.9 µM. Further, the TGI is 32 µM in the experiment with SK-MEL-2 melanoma, greater than 95 µM in the experiment with CCRF-CEM leukemia, 62.5 µM with NCI/ADR-RES ovarian and 50.1 µM with MALME-3M melanoma.

Turning to `Cc1nn(-c2ccc(Cl)cc2)c2ncnc(N/N=C/c3ccccc3O)c12`, the GI50 was 1.09 µM and 0.568 µM with PC-3 prostate; 4.12 µM and 2.12 µM in the experiment on HS 578T breast; 1.56 µM and 0.494 µM with SK-MEL-28 melanoma; 0.508 µM and 0.37 µM in the experiment with U251 CNS; 4.03 µM and 0.501 µM in the experiment on SNB-75 CNS; 1.6 µM and 0.91 µM in the experiment with UACC-62 melanoma. Besides, the GI50 in the experiment with SK-MEL-2 melanoma is 1.24 µM and 1.59 µM; in the experiment on CCRF-CEM leukemia, 0.342 µM and 0.23 µM; in the experiment on NCI/ADR-RES ovarian, 0.372 µM and 0.356 µM; in the experiment with MALME-3M melanoma, 1.19 µM and 0.508 µM. Further, the TGI in the experiment with PC-3 prostate is greater than 100 µM; in the experiment on HS 578T breast, greater than 88.1 µM; in the experiment on SK-MEL-28 melanoma, greater than 100 µM; in the experiment with U251 CNS it was 16.8 µM and 16.2 µM; in the experiment with SNB-75 CNS it was 37.9 µM and 4.49 µM; in the experiment with UACC-62 melanoma it was 19.9 µM and 6.95 µM. The TGI is 37.2 µM and > 100 µM with SK-MEL-2 melanoma; greater than 100 µM with CCRF-CEM leukemia; 16.9 µM and 17.4 µM in the experiment on NCI/ADR-RES ovarian; 9.56 µM and 7.85 µM in the experiment on MALME-3M melanoma.

Turning to `O=C(/C=C/C12c3ccccc3C(c3ccccc31)C1C(=O)NC(=O)C12)c1ccccn1` (centres undefined), the GI50 in the experiment on PC-3 prostate is 1.67 µM; with HS 578T breast, 3.2 µM; in the experiment on SK-MEL-28 melanoma it was 2.03 µM; in the experiment with U251 CNS, 1.4 µM; in the experiment with SNB-75 CNS, 1.67 µM; in the experiment on UACC-62 melanoma it was 1.62 µM. Also, the GI50 in the experiment on SK-MEL-2 melanoma was 1.76 µM; in the experiment on CCRF-CEM leukemia, 1.44 µM; in the experiment with NCI/ADR-RES ovarian, 2.81 µM; in the experiment on MALME-3M melanoma, 2.14 µM. For the same compound, the TGI amounted to 4.46 µM in the experiment on PC-3 prostate; 23 µM in the experiment on HS 578T breast; 3.86 µM in the experiment with SK-MEL-28 melanoma; 2.74 µM in the experiment on U251 CNS; 4.34 µM in the experiment on SNB-75 CNS; 3.1 µM with UACC-62 melanoma. Also, the TGI stood at 3.95 µM with SK-MEL-2 melanoma, 9.92 µM in the experiment on CCRF-CEM leukemia, 10.1 µM with NCI/ADR-RES ovarian and 5.05 µM with MALME-3M melanoma.
